According to ChEMBL document CHEMBL4418497, “Compositions and methods relating to inhibiting serine hyrdoxymethyltransferase 2 activity” (2016):

Target: T1, Serine hydroxymethyltransferase, mitochondrial (Homo sapiens, UniProt P34897)
T1 sequence (P34897 whole entry): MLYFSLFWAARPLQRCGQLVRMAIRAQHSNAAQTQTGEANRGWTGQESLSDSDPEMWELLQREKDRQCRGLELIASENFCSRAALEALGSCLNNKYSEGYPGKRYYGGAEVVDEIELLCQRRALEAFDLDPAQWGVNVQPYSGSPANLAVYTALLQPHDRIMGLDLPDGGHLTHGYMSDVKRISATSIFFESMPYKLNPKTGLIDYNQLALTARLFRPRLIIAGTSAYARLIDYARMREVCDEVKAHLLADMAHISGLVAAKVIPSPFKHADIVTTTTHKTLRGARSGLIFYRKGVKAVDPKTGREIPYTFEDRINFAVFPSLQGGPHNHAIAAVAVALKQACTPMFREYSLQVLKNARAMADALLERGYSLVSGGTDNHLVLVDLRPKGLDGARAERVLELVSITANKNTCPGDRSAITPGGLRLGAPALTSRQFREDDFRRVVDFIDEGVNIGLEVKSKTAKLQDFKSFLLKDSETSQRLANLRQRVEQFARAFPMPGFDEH
Assay: Inhibition of His-tagged human recombinant SHMT2 expressed in Escherichia coli BLR(DE3) assessed as reduction in NADPH level using L-serine, THF and NADP+ incubated for 5 mins by SHMT2-MTHFD coupled reaction based fluorescence assay

| Compound | IC50 (read-out: IC50) [µM] | IC50 (read-out: pIC50 (converted)) [µM] |
| --- | --- | --- |
| COc1ccc(Nc2ncnc3sc(C(=O)O)cc23)c(OC)c1 | 1.35 | – |
| COc1ccc2nc(NC(=O)Nc3cn(CC(C)C)c(=O)c4ccccc34)sc2c1 | 2.04 | – |
| CCN(CC)CCNC(=O)c1noc2c1CCc1sccc1-2 | 4.17 | – |
| COc1cc(OC)c(NC(=O)N2CCC3(CC2)Nc2cc(F)ccc2-n2cccc23)cc1Cl | 4.17 | – |
| CCOc1ccc(C2CC(=O)N3CN(c4ccc(OCC)cc4)CSC3=C2C#N)cc1 (configuration not stated) | 10.5 | – |
| Cc1cc(C)n(-c2nnc(Nc3ccc4c(c3)OCCO4)c3ccccc23)n1 | 2.19 | – |
| O=C(Nc1ccc(Br)cc1F)N1CCSc2ncccc21 | 7.59 | – |
| Cc1ccc2oc(SCC(=O)Nc3ccc(S(=O)(=O)N4CCCC4)cc3)nc2n1 | 11.8 | – |
| CCOC(=O)Cc1csc(NC(=O)Nc2cn(CC(C)C)c(=O)c3ccccc23)n1 | 3.31 | – |
| CC(C)Cn1cc(NC(=O)NC2CC2)c2ccccc2c1=O | 8.71 | – |
| COc1cccc(NS(=O)(=O)c2ccc3c4c2CC(=O)N4CC(C)S3)c1 (configuration not stated) | 3.63 | – |
| COc1ccc(NS(=O)(=O)c2cc(Br)cnc2N)cc1OC | 7.76 | – |
| CC(C)Cn1cc(NC(=O)N2CCN(c3cccc(Cl)c3)CC2)c2ccccc2c1=O | 5.89 | – |
| CNc1nc(Nc2ccc(OC)cc2)c2cnn(C)c2n1 | 13.8 | – |
| Cn1cc(NC(=O)NCc2ccccn2)c2ccccc2c1=O | 4.79 | – |
| Nc1ncccc1NC(=O)CCC(=O)O | 4.47 | – |
| CCOC(=O)c1c(S(=O)(=O)Nc2ccc(OC)c(OC)c2)c(C)n(C)c1C | 8.13 | – |
| COC(=O)Cn1cc2c(n1)-c1c(oc(C(=O)N3CCCC3)c1C)CC2 | 6.03 | – |
| Cn1cc(NC(=O)NCC2COc3ccccc3O2)c2ccccc2c1=O (configuration not stated) | 4.68 | – |
| O=C(O)CCc1nc(-c2ccccc2)c(-c2ccccc2)o1 [OXAPROZIN] | – | 1.95 |
| COc1ccc(Nc2nc(Nc3ccc(OC)c(Cl)c3)c3cnn(C)c3n2)c(OC)c1 | 2.45 | – |
| COc1cc(OC)c(NC(=O)NCCc2csc(C)c2C)cc1Cl | 4.57 | – |

| Compound | IC50 (read-out: IC50) [µM] | IC50 (read-out: pIC50 (converted)) [µM] |
| --- | --- | --- |
| CCOC(=O)C1CCCN(C(=O)Nc2cn(C)c(=O)c3ccccc23)C1 (configuration not stated) | 6.46 | – |
| CC(C)Cn1cc(NC(=O)N2CCC(C(N)=O)(N3CCCCC3)CC2)c2ccccc2c1=O | 2.51 | – |
| CCC1c2ccc(C)n2CCN1C(=O)Nc1cc(OC)ccc1OC (configuration not stated) | 6.31 | – |
| CCOC(=O)C1CCCN(c2cc(C(=O)O)c3cc(N)ccc3n2)C1 (configuration not stated) | 5.5 | – |
| CC(C)Cn1cc(NC(=O)Nc2ccccc2)c2ccccc2c1=O | 2.4 | – |
| CNC(=O)c1oc2c(c1C)C1N=C(C)SC1CC2 (configuration not stated) | 5.13 | – |
| COc1ccc(OC)c(NC2c3ncccc3C(=O)N2c2ccccc2)c1 (configuration not stated) | 15.5 | – |
| CC(C)Cn1cc(NC(=O)Nc2cc(F)ccc2F)c2ccccc2c1=O | 4.27 | – |
| Cn1cc(NC(=O)NCc2cccnc2)c2ccccc2c1=O | 5.75 | – |
| CC(C)Cn1cc(NC(=O)NC2CCCCC2)c2ccccc2c1=O | 1.74 | – |
| CCCN1CCN(CCCNC(=O)c2oc3c(c2C)-c2[nH]ncc2CC3)CC1 | 5.13 | – |
| CC(C)Cn1cc(NC(=O)NC(C)c2ccccc2)c2ccccc2c1=O (configuration not stated) | 2.75 | – |
| COc1cc(OC)c(NC(=O)NCCC2=CSC3CC(C)CCC23)cc1Cl (configuration not stated) | 7.08 | – |
| CCC(Sc1nc2ncccc2o1)C(=O)Nc1c(C)cc(C)cc1C (configuration not stated) | 2.51 | – |
| CC(C)CC(=O)Nc1cc(F)c2nc(N3CCOCC3)ccc2c1 | 2.57 | – |
| COc1cc(NC(=O)C2=Cc3sc(C)c(C)c3CS2)cc(OC)c1 | 6.76 | – |
| CCOc1cc(-c2nnc3[nH]c(=O)n(C)c(=O)c3n2)ccc1OC(C)C | 0.69 | – |
| Cn1cc(NC(=O)N2CCCCC2)c2ccccc2c1=O | 9.33 | – |
| CCOC(=O)c1c(C)oc2c1c1c(c3ccccc32)OCN(CCCC(=O)O)C1 | 1.35 | – |
| CCOC(=O)CSc1nc2ccc(N)cc2s1 | 0.71 | – |
| COc1cc(NC2=C(c3ccccc3)C(=O)c3ccccc32)cc(OC)c1 | 11.5 | – |
| Cn1c(=O)oc2cc(S(=O)(=O)N3CCC4(CC3)Nc3cc(F)ccc3-n3cccc34)ccc21 | 8.51 | – |

| Compound | IC50 (read-out: IC50) [µM] | IC50 (read-out: pIC50 (converted)) [µM] |
| --- | --- | --- |
| Cn1nc(C(=O)N2CC=C(c3ccccc3)CC2)c2c1-c1ccsc1CC2 | 0.85 | – |
| O=C1CN(C(=O)COc2cccc3ccccc23)c2ccccc2N1 | 2.34 | – |
| COc1cc2c(cc1OC)C(C)N(C(=O)Nc1cn(CC(C)C)c(=O)c3ccccc13)CC2 (configuration not stated) | 3.02 | – |
| CCC(CC)n1nc(O)c2c(C)cc(=O)[nH]c21 | 7.41 | – |
| COc1ccc(NC(=O)N2CCSc3ccccc32)cc1OC | 7.08 | – |
| COc1ccc(OC)c(NS(=O)(=O)c2cc(-c3cc(C)no3)ccc2C(C)C)c1 | 3.89 | – |
| Cc1cc(NC(=O)N2CCSc3ncccc32)ccc1Br | 4.37 | – |
| Cc1c(C(=O)N2CCOCC2)oc2c1-c1nn(CC(=O)NC3CCCCC3C)cc1CC2 (configuration not stated) | 3.16 | – |
| CC(=O)Nc1ncc2c(n1)CC(c1ccco1)CC2=O (configuration not stated) | 4.57 | – |
| CCC(=O)Nc1cc(F)c2nc(N3CCOCC3)ccc2c1 | 1.55 | – |
| CC(C)Cn1cc(NC(=O)NCC2CCN(CCc3cccs3)CC2)c2ccccc2c1=O | 3.24 | – |
| CN1CCc2nc3sc(C(=O)c4ccc(Cl)cc4)c(N)c3cc2C1 | 3.89 | – |
| CC(C)Cn1cc(NC(=O)Nc2ccccn2)c2ccccc2c1=O | 3.31 | – |
| COc1ccc(Nc2nnc(-n3nc(C)cc3C)c3ccccc23)cc1OC | 8.32 | – |
| COc1ccc(NCc2cccn2-c2nnc(N3CCCCC3)s2)cc1OC | 3.39 | – |
| COc1ccc2c(c1)C=C(C(=O)Nc1ccc(OC)cc1OC)CO2 | 8.71 | – |
| CC(C)CCNC(=O)CSc1nc2ncccc2o1 | 2.51 | – |
| CC(=O)Nc1ccc2nc(SCc3cc(=O)n4nc(C)sc4n3)sc2c1 | 3.09 | – |
| COc1ccc(NC(=O)n2ncc3cc(Cl)ccc32)cc1OC | 9.77 | – |
| CC(=O)N1CCc2c(c(=O)[nH]c3onc(C)c23)C1 | 1.41 | – |
| COc1ccc(Cl)cc1NC(=O)N1CC2CCCN2c2ccccc21 (configuration not stated) | 2 | – |
| CC(C)Cn1cc(NC(=O)Nc2cccnc2)c2ccccc2c1=O | 2.24 | – |

| Compound | IC50 (read-out: IC50) [µM] | IC50 (read-out: pIC50 (converted)) [µM] |
| --- | --- | --- |
| CC(C)Cn1cc(NC(=O)Nc2cccc(F)c2)c2ccccc2c1=O | 2.24 | – |
| COc1ccc(NC(=O)N2CCC3(CC2)Nc2ccccc2-n2cccc23)c(OC)c1 | 3.47 | – |
| CCOc1ccc(Nc2ncnc3sc(C(=O)O)c(C)c23)cc1 | 9.33 | – |
| O=c1c(Nc2cccc3c2CCCC3)c(-c2ccc(Cl)cc2)c1=O | 5.25 | – |
| Cc1nc(SCC(=O)Nc2cccc3nsnc23)oc1C | 2.51 | – |
| COc1ccc(Nc2nc(Nc3ccccc3)c3cnn(C)c3n2)c(OC)c1 | 3.31 | – |
| COc1ccc(OC)c(Nc2c(-c3cc(C)c(C)cc3C)c(=O)c2=O)c1 | 10 | – |
| Cc1ccc2oc(SCC(=O)Nc3cccc(N4CCCC4=O)c3)nc2n1 | 4.47 | – |
| CC(C)Cn1cc(NC(=O)N(Cc2ccco2)CC2CCCO2)c2ccccc2c1=O (configuration not stated) | 3.89 | – |
| Cc1nn(C)c(C)c1CNC(=O)Nc1ccc2c(c1)OCCO2 | 4.07 | – |
| CC(C)Cn1cc(NC(=O)NCCN2CCCCC2)c2ccccc2c1=O | 1.74 | – |
| CCOc1ccc2nc(NC(=O)CSc3nc4ncccc4o3)sc2c1 | 4.37 | – |
| COc1ccc(Nc2nc(NC3CCCC3)nc3c2cnn3C)cc1 | 2.69 | – |
| COc1ccc(NC(=O)N2CCN3CCCCC3C2)cc1OC (configuration not stated) | 3.39 | – |
| CC(C)Cn1cc(NC(=O)N2CCCc3ccccc32)c2ccccc2c1=O | 3.02 | – |
| COc1c(C)cnc(CSc2nc3ncccc3o2)c1C | 4.07 | – |
| O=C(Nc1cc(F)c2nc(N3CCOCC3)ccc2c1)C1CC1 | 1.17 | – |
| Cc1c(C(=O)NCCCN2CCOCC2)oc2c1-c1[nH]ncc1CC2 | 4.17 | – |
| Fc1ccc(NCc2ccc3nccnc3c2)c(F)c1 | 2.75 | – |
| CC(C)Cn1cc(NC(=O)NCCc2ccsc2)c2ccccc2c1=O | 1.66 | – |
| COc1ccc(OC)c(CNC(=O)Nc2cn(C)c(=O)c3ccccc23)c1 | 2.57 | – |
| CC(C)Cn1cc(NC(=O)NCCCN2CCCC(C)C2)c2ccccc2c1=O (configuration not stated) | 2.45 | – |

| Compound | IC50 (read-out: IC50) [µM] | IC50 (read-out: pIC50 (converted)) [µM] |
| --- | --- | --- |
| O=C(CSc1nc2ncccc2o1)Nc1ccc(S(=O)(=O)NC2CCCCC2)cc1 | 3.02 | – |
| Cc1ccc2c(c1)c1c(n2CC(O)CNCCO)C(=O)CCC1 (configuration not stated) | 5.01 | – |
| CCCNC(=O)Nc1cn(CC(C)C)c(=O)c2ccccc12 | 2.14 | – |
| CC(C)Cn1cc(NC(=O)N2CCN(C(=O)c3ccco3)CC2)c2ccccc2c1=O | 4.57 | – |
| CC(C)Cn1cc(NC(=O)NC2CCCC2)c2ccccc2c1=O | 2.24 | – |
| O=C(CSc1nc2ncccc2o1)Nc1ccc(S(=O)(=O)N2CCOCC2)cc1 | 2.63 | – |
| CCCCN1CCS(=O)(=O)c2c(Cl)c(N3CCOCC3)nc(Oc3ccc(F)cc3)c21 | 4.57 | – |
| CC(C)Cn1cc(NC(=O)N(Cc2ccco2)C2CCCCC2C)c2ccccc2c1=O (configuration not stated) | 6.31 | – |
| Cc1c(C(=O)NCCN2CCOCC2)oc2c1-c1[nH]ncc1CC2 | 3.55 | – |
| Cc1cc2nc(CSc3nc4ccc(NC(=O)CCC5CCCC5)cc4s3)cc(=O)n2o1 | 9.55 | – |
| CCC1c2ccc(C)n2CCN1C(=O)Nc1cc(OC)cc(OC)c1 (configuration not stated) | 7.94 | – |
| Cn1cnc2cc(NCc3ccco3)ccc21 | 2.04 | – |
| COc1cccc(C2CC(=O)N3CN(c4ccc(OC)cc4OC)CSC3=C2C#N)c1 (configuration not stated) | 4.37 | – |
| COc1cc(OC)c(NC(=O)Nc2cn(CC(C)C)c(=O)c3ccccc23)cc1Cl | 2.95 | – |
| COc1ccc(Nc2nc(NCCO)nc3c2cnn3C)cc1 | 1.86 | – |
| CC1CC(C)CN(CCCNC(=O)Nc2cn(C)c(=O)c3ccccc23)C1 (configuration not stated) | 10.7 | – |
| CC(=O)Oc1cc2c(C(=O)N3CCN(c4ccccc4)CC3)c(C)oc2c2ccccc12 | 2.88 | – |
| Cn1cc(NC(=O)NCC2CCCO2)c2ccccc2c1=O (configuration not stated) | 4.47 | – |
| COc1cc(NC(=O)n2ncc3cc(Cl)ccc32)cc(OC)c1 | 11.8 | – |
